# Tests used:
# Format in all cases: functional
# Staphylococcus aureus [1] = experiment: Antibacterial activity against erythromycin-susceptible Staphylococcus aureus ATCC 25923 by standard broth microdilution method
# Escherichia coli = experiment: Antibacterial activity against penicillin-susceptible Escherichia coli ATCC 25922 by standard broth microdilution method
# Bacillus subtilis = experiment: Antibacterial activity against penicillin-susceptible Bacillus subtilis ATCC 9372 by standard broth microdilution method
# Pseudomonas aeruginosa = experiment: Antibacterial activity against penicillin-susceptible Pseudomonas aeruginosa ATCC 27853 by standard broth microdilution method
# Streptococcus pneumoniae [2] = experiment: Antibacterial activity against erythromycin-resistant Streptococcus pneumoniae AB11 expressing ermB and me/A genes by standard broth microdilution method
# Streptococcus pneumoniae [3] = experiment: Antibacterial activity against erythromycin-resistant Streptococcus pneumoniae B1 expressing ermB gene by standard broth microdilution method
# Streptococcus pyogenes = experiment: Antibacterial activity against erythromycin resistant Streptococcus pyogenes R1 by standard broth microdilution method
# Staphylococcus aureus [4] = experiment: Antibacterial activity against methicillin-resistant Staphylococcus aureus ATCC 43300 by standard broth microdilution method
Compound,MIC (Staphylococcus aureus [1]) [µg/mL],MIC (Escherichia coli) [µg/mL],MIC (Bacillus subtilis) [µg/mL],MIC (Pseudomonas aeruginosa) [µg/mL],MIC (Streptococcus pneumoniae [2]) [µg/mL],MIC (Streptococcus pneumoniae [3]) [µg/mL],MIC (Streptococcus pyogenes) [µg/mL],MIC (Staphylococcus aureus [4]) [µg/mL]
CC[C@H]1OC(=O)[C@H](C)C(=O)[C@H](C)[C@@H](O[C@H]2O[C@@H](C)C[C@@H](N(C)C)[C@@H]2O)[C@](C)(OC)C[C@@H](C)C(=O)[C@H](C)[C@@H](OC(=O)NCCn2cc(-c3cccc(Cl)c3)nn2)[C@]1(C)O,8,> 128,4,128,128,128,64,256
CC[C@H]1OC(=O)[C@H](C)C(=O)[C@H](C)[C@@H](O[C@H]2O[C@@H](C)C[C@@H](N(C)C)[C@@H]2O)[C@](C)(OC)C[C@@H](C)C(=O)[C@H](C)[C@@H](OC(=O)NCCCn2cc(-c3ccccc3)nn2)[C@]1(C)O,8,> 128,8,128,64,128,64,256
CC[C@H]1OC(=O)[C@H](C)C(=O)[C@H](C)[C@@H](O[C@H]2O[C@@H](C)C[C@@H](N(C)C)[C@@H]2O)[C@](C)(OC)C[C@@H](C)C(=O)[C@H](C)[C@@H](OC(=O)NCCn2cc(-c3ccccc3Cl)nn2)[C@]1(C)O,8,> 128,4,128,128,128,64,256
CC[C@H]1OC(=O)[C@H](C)C(=O)[C@H](C)[C@@H](O[C@H]2O[C@@H](C)C[C@@H](N(C)C)[C@@H]2O)[C@](C)(OC)C[C@@H](C)C(=O)[C@H](C)[C@@H](OC(=O)NCCn2cc(-c3ccccc3)nn2)[C@]1(C)O,32,> 128,8,128,256,256,256,> 256
CC[C@H]1OC(=O)[C@H](C)C(=O)[C@H](C)[C@@H](O[C@H]2O[C@@H](C)C[C@@H](N(C)C)[C@@H]2O)[C@](C)(OC)C[C@@H](C)C(=O)[C@H](C)[C@@H](OC(=O)NCCn2cc(-c3ccc(C)cc3)nn2)[C@]1(C)O,32,> 128,8,128,256,> 256,256,> 256
CC[C@H]1OC(=O)[C@H](C)C(=O)[C@H](C)[C@@H](O[C@H]2O[C@@H](C)C[C@@H](N(C)C)[C@@H]2O)[C@](C)(OC)C[C@@H](C)C(=O)[C@H](C)[C@@H](OC(=O)NCCn2cc(-c3ccc([N+](=O)[O-])cc3)nn2)[C@]1(C)O,16,> 128,4,128,256,256,64,> 256
CCCc1ccc(-c2cn(CCNC(=O)O[C@@H]3[C@@H](C)C(=O)[C@H](C)C[C@@](C)(OC)[C@H](O[C@H]4O[C@@H](C)C[C@@H](N(C)C)[C@@H]4O)[C@@H](C)C(=O)[C@@H](C)C(=O)O[C@H](CC)[C@@]3(C)O)nn2)cc1,32,> 128,8,128,128,256,64,256
CC[C@H]1OC(=O)[C@H](C)C(=O)[C@H](C)[C@@H](O[C@H]2O[C@@H](C)C[C@@H](N(C)C)[C@@H]2O)[C@](C)(OC)C[C@@H](C)C(=O)[C@H](C)[C@@H](OC(=O)NCCn2cc(-c3cccc(N)c3)nn2)[C@]1(C)O,32,> 128,32,128,256,> 256,256,> 256
CC[C@H]1OC(=O)[C@H](C)C(=O)[C@H](C)[C@@H](O[C@H]2O[C@@H](C)C[C@@H](N(C)C)[C@@H]2O)[C@](C)(OC)C[C@@H](C)C(=O)[C@H](C)[C@@H](OC(=O)NCCn2cc(-c3cccc(Br)c3)nn2)[C@]1(C)O,16,> 128,8,128,128,256,128,> 256
CC[C@H]1OC(=O)[C@H](C)C(=O)[C@H](C)[C@@H](O[C@H]2O[C@@H](C)C[C@@H](N(C)C)[C@@H]2O)[C@](C)(OC)C[C@@H](C)C(=O)[C@H](C)[C@@H](OC(=O)NCCn2cc(-c3ccc(Cl)cc3)nn2)[C@]1(C)O,8,> 128,4,128,128,128,64,256
CC[C@H]1OC(=O)[C@H](C)C(=O)[C@H](C)[C@@H](O[C@H]2O[C@@H](C)C[C@@H](N(C)C)[C@@H]2O)[C@](C)(OC)C[C@@H](C)C(=O)[C@H](C)[C@@H](OC(=O)NCCn2cc(-c3ccccc3OC)nn2)[C@]1(C)O,16,> 128,4,128,> 256,> 256,256,> 256

# Reference: ChEMBL document CHEMBL4602639, “A novel series of 11-O-carbamoyl-3-O-descladinosyl clarithromycin derivatives bearing 1,2,3-triazole group: Design, synthesis and antibacterial evaluation” (2020)
